Assay results as given in patent publication US10533010B2, “Substituted indole Mcl-1 inhibitors” (Vanderbilt University, priority 2014, dated 2020).

What follows are compounds tested against recombinant Mcl-1 (residues 172-327) (Homo sapiens (Human), UniProt Q07820) (assay: Fluorescence polarization anisotropy competition assay (FITC-Bak or FITC-Bim BH3 peptide) with Mcl-1). Conditions: Table 2; Ki bins given in nM; FITC-Bak or FITC-Bim peptide competition; Ki converted from IC50; read-out: Ki for Inhibition of Mcl-1.
recombinant Mcl-1 (residues 172-327), sequence (Q07820 172-327): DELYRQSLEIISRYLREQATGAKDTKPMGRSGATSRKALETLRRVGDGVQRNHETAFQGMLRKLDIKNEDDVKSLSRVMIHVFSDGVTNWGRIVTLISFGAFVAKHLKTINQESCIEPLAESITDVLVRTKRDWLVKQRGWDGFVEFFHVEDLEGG
Assay type: binding

Ki [nM] | Compound
< 50 | Cc1cc(OCCCc2c3n(c4c(-c5c(C)nn(C)c5C)c(Cl)ccc24)CCCN(c2cc(C(=O)O)cc4nnn(C)c24)C3=O)cc(C)c1Cl [I-362, 7-(8-chloro-11-(3-(4-chloro-3,5-dimethylphenoxy)propyl)-1-oxo-7-(1,3,5-trimethyl-1H-pyrazol-4-yl)-4,5-dihydro-1H-[1,4]diazepino[1,2-a]indol-2(3H)-yl)-1-methyl-1H-benzo[d][1,2,3]triazole-5-carboxylic acid]
< 50 | Cc1cc(OCCCc2c(C(=O)N[C@H]3CCC[C@@H](C(=O)O)C3)[nH]c3c(-c4c(C)nn(C)c4C)c(Cl)ccc23)cc(C)c1Cl [I-331, (1R,3S)-3-(6-chloro-3-(3-(4-chloro-3,5-dimethylphenoxy)propyl)-7-(1,3,5-trimethyl-1H-pyrazol-4-yl)-1H-indole-2-carboxamido)cyclohexane-1-carboxylic acid]
< 50 | Cc1cc(OCCCc2c3n(c4c(-c5c(C)nn(C)c5C)c(Cl)ccc24)CCCN(c2cc(C(=O)O)cc4c2ncn4C)C3=O)cc(C)c1Cl [I-365, 4-(8-chloro-11-(3-(4-chloro-3,5-dimethylphenoxy)propyl)-1-oxo-7-(1,3,5-trimethyl-1H-pyrazol-4-yl)-4,5-dihydro-1H-[1,4]diazepino[1,2-a]indol-2(3H)-yl)-1-methyl-1H-benzo[d]imidazole-6-carboxylic acid]
< 50 | Cc1cc(OCCCc2c3n(c4c(-c5c(C)nn(C)c5C)c(Cl)ccc24)C[C@@H](C)N(c2cc(C(=O)O)c4ccn(C)c4c2)C3=O)cc(C)c1Cl [I-160, (R)-6-(7-chloro-10-(3-(4-chloro-3,5-dimethylphenoxy)propyl)-3-methyl-1-oxo-6-(1,3,5-trimethyl-1H-pyrazol-4-yl)-3,4-dihydropyrazino[1,2-a]indol-2(1H)-yl)-1-methyl-1H-indole-4-carboxylic acid]
< 50 | Cc1cc(OCCCc2c(C(=O)NCC(=O)N[C@@H](Cc3ccccc3)C(=O)O)[nH]c3c(-c4c(C)nn(C)c4C)cccc23)cc(C)c1Cl [I-291, (3-(3-(4-chloro-3,5-dimethylphenoxy)propyl)-7-(1,3,5-trimethyl-1H-pyrazol-4-yl)-1H-indole-2-carbonyl)glycyl-L-phenylalanine]
< 50 | Cc1cc(OCCCc2c(C(=O)N[C@@H]3CCC[C@@H](C(=O)O)C3)[nH]c3c(-c4c(C)nn(C)c4C)c(Cl)ccc23)cc(C)c1Cl [I-322, (1R,3R)-3-(6-chloro-3-(3-(4-chloro-3,5-dimethylphenoxy)propyl)-7-(1,3,5-trimethyl-1H-pyrazol-4-yl)-1H-indole-2-carboxamido)cyclohexane-1-carboxylic acid]
< 50 | Cc1cc(OCCCc2c(C(=O)NCc3cccc(C(=O)NS(=O)(=O)c4ccccc4C#N)c3)[nH]c3c(-c4c(C)n[nH]c4C)cccc23)cc(C)c1Cl [I-26, 3-(3-(4-chloro-3,5-dimethylphenoxy)propyl)-N-(3-(((2-cyanophenyl)sulfonyl)carbamoyl)benzyl)-7-(3,5-dimethyl-1H-pyrazol-4-yl)-1H-indole-2-carboxamide]
< 50 | Cc1cc(OCCCc2c3n(c4c(-c5c(C)nn(C)c5C)c(Cl)ccc24)CCC(C)N(Cc2ccc(C(=O)O)cc2)C3=O)cc(C)c1Cl (stereo not shown) [I-127, 4-((8-chloro-11-(3-(4-chloro-3,5-dimethylphenoxy)propyl)-3-methyl-1-oxo-7-(1,3,5-trimethyl-1H-pyrazol-4-yl)-4,5-dihydro-1H-[1,4]diazepino[1,2-a]indol-2(3H)-yl)methyl)benzoic acid]
< 50 | Cc1cc(OCCCc2c3n(c4c(-c5c(C)nn(C)c5C)c(Cl)ccc24)CCCN(c2cc(C(=O)O)c4cc[nH]c4c2)C3=O)cc(C)c1Cl [I-253, 6-(8-chloro-11-(3-(4-chloro-3,5-dimethylphenoxy)propyl)-1-oxo-7-(1,3,5-trimethyl-1H-pyrazol-4-yl)-4,5-dihydro-1H-[1,4]diazepino[1,2-a]indol-2(3H)-yl)-1H-indole-4-carboxylic acid]
< 50 | Cc1cc(OCCCc2c3n(c4c(-c5c(C)nn(C)c5C)c(Cl)ccc24)CCCNC3=O)cc(C)c1Cl [I-118, 8-chloro-11-(3-(4-chloro-3,5-dimethylphenoxy)propyl)-7-(1,3,5-trimethyl-1H-pyrazol-4-yl)-2,3,4,5-tetrahydro-1H-[1,4]diazepino[1,2-a]indol-1-one]
< 50 | Cc1cc(OCCCc2c(C(=O)Nc3cc(NC4CCOCC4)cc(C(=O)O)c3)[nH]c3c(-c4c(C)nn(C)c4C)c(Cl)ccc23)cc(C)c1Cl [I-209, 3-(6-chloro-3-(3-(4-chloro-3,5-dimethylphenoxy)propyl)-7-(1,3,5-trimethyl-1H-pyrazol-4-yl)-1H-indole-2-carboxamido)-5-((tetrahydro-2H-pyran-4-yl)amino)benzoic acid]
< 50 | Cc1cc(OCCCc2c3n(c4c(-c5c(C)nn(C)c5C)c(Cl)ccc24)CCCN(c2ccc(-c4nn[nH]n4)cc2)C3=O)cc(C)c1Cl [I-357, 2-(4-(2H-tetrazol-5-yl)phenyl)-8-chloro-1-(3-(4-chloro-3,5-dimethylphenoxy)propyl)-7-(1,3,5-trimethyl-1H-pyrazol-4-yl)-2,3,4,5-tetrahydro-1H-[1,4]diazepino[1,2-a]indol-1-one]
< 50 | Cc1cc(OCCCc2c3n(c4c(-c5c(C)nn(C)c5C)c(Cl)ccc24)[C@@H](C)CN(c2cccc(C(=O)O)c2)C3=O)cc(C)c1Cl [I-165, (S)-3-(7-chloro-10-(3-(4-chloro-3,5-dimethylphenoxy)propyl)-4-methyl-1-oxo-6-(1,3,5-trimethyl-1H-pyrazol-4-yl)-3,4-dihydropyrazino[1,2-a]indol-2(1H)-yl)benzoic acid]

Compound | Ki [nM]
Cc1cc(OCCCc2c(C(=O)NCC(=O)NS(=O)(=O)C3CC3)[nH]c3ccccc23)cc(C)c1Cl [I-9, 3-(3-(4-chloro-3,5-dimethylphenoxy)propyl)-N-(2-(cyclopropanesulfonamido)-2-oxoethyl)-1H-indole-2-carboxamide] | 501 to 999
Cc1cc(OCCCc2c(C(=O)NCc3ccc(C(=O)NS(C)(=O)=O)o3)[nH]c3ccccc23)cc(C)c1Cl [I-59, 3-(3-(4-chloro-3,5-dimethylphenoxy)propyl)-N-((5-((methylsulfonyl)carbamoyl)furan-2-yl)methyl)-1H-indole-2-carboxamide] | 101 to 299
Cc1cc(OCCCc2c(C(=O)N[C@H]3CCC[C@H]3C(=O)O)[nH]c3c(-c4c(C)nn(C)c4C)c(Cl)ccc23)cc(C)c1Cl [I-334, (1R,2S)-2-(6-chloro-3-(3-(4-chloro-3,5-dimethylphenoxy)propyl)-7-(1,3,5-trimethyl-1H-pyrazol-4-yl)-1H-indole-2-carboxamido)cyclopentane-1-carboxylic acid] | < 50
Cc1cc(OCCCc2c3n(c4c(-c5c(C)nn(C)c5C)c(Cl)ccc24)CCCN(Cc2cc(C(=O)O)cc(OCCCC(C)C)n2)C3=O)cc(C)c1Cl [I-303, 2-((8-chloro-11-(3-(4-chloro-3,5-dimethylphenoxy)propyl)-1-oxo-7-(1,3,5-trimethyl-1H-pyrazol-4-yl)-4,5-dihydro-1H-[1,4]diazepino[1,2-a]indol-2(3H)-yl)methyl)-6-((4-methylpentyl)oxy)isonicotinic acid] | < 50
Cc1cc(OCCCc2c3n(c4c(-c5c(C)nn(C)c5C)cccc24)CCCN(Cc2cc(C(=O)O)n(C)c2)C3=O)cc(C)c1Cl [I-79, 4-((11-(3-(4-chloro-3,5-dimethylphenoxy)propyl)-1-oxo-7-(1,3,5-trimethyl-1H-pyrazol-4-yl)-4,5-dihydro-1H-[1,4]diazepino[1,2-a]indol-2(3H)-yl)methyl)-1-methyl-1H-pyrrole-2-carboxylic acid] | 51 to 100
Cc1cc(OCCCc2c(C(=O)NCC(=O)NS(=O)(=O)c3ccccc3)[nH]c3ccccc23)cc(C)c1Cl [I-5, 3-(3-(4-chloro-3,5-dimethylphenoxy)propyl)-N-(2-oxo-2-(phenylsulfonamido)ethyl)-1H-indole-2-carboxamide] | 101 to 299
Cc1cc(OCCCc2c(C(=O)Nc3cccc(CC(=O)O)c3)[nH]c3c(-c4c(C)nn(C)c4C)cccc23)cc(C)c1Cl [I-206, 2-(3-(3-(3-(4-chloro-3,5-dimethylphenoxy)propyl)-7-(1,3,5-trimethyl-1H-pyrazol-4-yl)-1H-indole-2-carboxamido)phenyl)acetic acid] | < 50
Cc1cc(OCCCc2c3n(c4c(-c5c(C)nn(C)c5C)c(Cl)ccc24)CCCN(Cc2cc(C(=O)O)cc(Cl)n2)C3=O)cc(C)c1Cl [I-298, 2-chloro-6-((8-chloro-1-(3-(4-chloro-3,5-dimethylphenoxy)propyl)-1-oxo-7-(1,3,5-trimethyl-1H-pyrazol-4-yl)-4,5-dihydro-1H-[1,4]diazepino[1,2-a]indol-2(3H)-yl)methyl)isonicotinic acid] | < 50
Cc1cc(OCCCc2c(C(=O)Nc3ccc(C(=O)NS(=O)(=O)c4ccc([N+](=O)[O-])cc4)cc3)[nH]c3c(-c4cccnc4C)cccc23)cc(C)c1Cl [I-69, 3-(3-(4-chloro-3,5-dimethylphenoxy)propyl)-7-(2-methylpyridin-3-yl)-N-(4-(((4-nitrophenyl)sulfonyl)carbamoyl)phenyl)-1H-indole-2-carboxamide] | 101 to 299
Cc1cc(OCCCc2c(C(=O)N3CCN(c4ccc(C(=O)O)cc4)CC3)n(Cc3ccncc3)c3c(-c4c(C)nn(C)c4C)c(Cl)ccc23)cc(C)c1Cl [I-340, 4-(4-(6-chloro-3-(3-(4-chloro-3,5-dimethylphenoxy)propyl)-1-(pyridin-4-ylmethyl)-7-(1,3,5-trimethyl-1H-pyrazol-4-yl)-1H-indole-2-carbonyl)piperazin-1-yl)benzoic acid] | 51 to 100

Same assay, conditions: Table 2; Ki bins given in μM; FITC-Bak or FITC-Bim peptide competition; Ki converted from IC50; read-out: Ki for Inhibition of Mcl-1

Compound | Ki [nM]
Cc1cc(OCCCc2c(C(=O)NCc3cccc(C(=O)NCc4ccccc4)c3)[nH]c3c(-c4c(C)n[nH]c4C)cccc23)cc(C)c1Cl [I-64, N-(3-(benzylcarbamoyl)benzyl)-3-(3-(4-chloro-3,5-dimethylphenoxy)propyl)-7-(3,5-dimethyl-1H-pyrazol-4-yl)-1H-indole-2-carboxamide] | 10000 to 50000
Cc1cc(OCCCc2c(C(=O)N3CCC(NC(=O)c4cccc(Oc5ccccc5)c4)CC3)[nH]c3ccccc23)cc(C)c1Cl [I-259, N-(1-(3-(3-(4-chloro-3,5-dimethylphenoxy)propyl)-1H-indole-2-carbonyl)piperidin-4-yl)-3-phenoxybenzamide] | 1000 to 9990
